Reference: patent US11247990B1, “Bicyclic fused pyridine compounds as inhibitors of TAM kinases” (ARRAY BIOPHARMA INC., priority 2017, dated 2022)

Legend:
Details in all cases: averaged IC50
[1] = molecular target: His-tagged recombinant human AXL cytoplasmic domain (Homo sapiens (Human), UniProt P30530); test: AXL Enzyme Assay (LanthaScreen Eu Kinase Binding, TR-FRET)
Procedure, shortened: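 LanthaScreen Eu kinase binding format, incubated 60 min at 22 °C and read by TR-FRET dual-wavelength emission ratio as percent of control. IC50 taken where a 4-parameter logistic fit crosses 50 POC.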

[2] = molecular target: GST-tagged recombinant human TYRO3 kinase domain (Homo sapiens (Human), UniProt Q06418); test: TYRO3 Enzyme Assay (LanthaScreen Eu Kinase Binding, TR-FRET)
Sequence of GST-tagged recombinant human TYRO3 kinase domain (Q06418 518-790): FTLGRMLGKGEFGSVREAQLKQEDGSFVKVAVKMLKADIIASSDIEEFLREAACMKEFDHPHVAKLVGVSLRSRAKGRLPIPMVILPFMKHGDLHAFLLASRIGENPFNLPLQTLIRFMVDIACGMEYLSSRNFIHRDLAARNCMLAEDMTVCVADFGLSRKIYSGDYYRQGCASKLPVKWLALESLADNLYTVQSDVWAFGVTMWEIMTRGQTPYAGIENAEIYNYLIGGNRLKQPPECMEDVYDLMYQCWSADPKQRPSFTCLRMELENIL
Procedure, shortened: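 LanthaScreen Eu binding (tracer displacement) format read by TR-FRET after 60 min at 22 °C. Emission ratio converted to percent of control; IC50 taken where a 4-parameter logistic fit crosses 50 POC.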

[3] = molecular target: His-tagged recombinant human MER cytoplasmic domain (Homo sapiens (Human), UniProt Q12866); test: MER Enzyme Assay (LanthaScreen Eu Kinase Binding, TR-FRET)
Sequence of His-tagged recombinant human MER cytoplasmic domain (Q12866 527-999): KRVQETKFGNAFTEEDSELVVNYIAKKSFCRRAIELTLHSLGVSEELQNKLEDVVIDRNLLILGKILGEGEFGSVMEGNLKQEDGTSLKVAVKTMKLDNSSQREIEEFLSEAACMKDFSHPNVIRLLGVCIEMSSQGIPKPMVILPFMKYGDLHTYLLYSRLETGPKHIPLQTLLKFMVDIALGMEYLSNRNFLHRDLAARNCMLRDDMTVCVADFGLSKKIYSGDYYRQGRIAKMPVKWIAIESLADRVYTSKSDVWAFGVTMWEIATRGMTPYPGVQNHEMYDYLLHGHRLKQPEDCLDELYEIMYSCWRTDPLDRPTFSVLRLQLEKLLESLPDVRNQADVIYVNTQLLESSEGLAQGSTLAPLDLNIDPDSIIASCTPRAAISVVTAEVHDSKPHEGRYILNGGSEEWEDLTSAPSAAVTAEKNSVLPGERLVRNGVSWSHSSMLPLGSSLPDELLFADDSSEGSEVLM
Procedure, shortened: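 LanthaScreen Eu kinase binding (tracer displacement) assay with His-tagged human MER cytoplasmic domain, 60 min incubation at 22 °C. TR-FRET dual-wavelength emission ratio converted to percent of control; IC50 is where the 4-parameter logistic fit crosses 50 POC.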

Sequence of His-tagged recombinant human AXL cytoplasmic domain (P30530 473-894): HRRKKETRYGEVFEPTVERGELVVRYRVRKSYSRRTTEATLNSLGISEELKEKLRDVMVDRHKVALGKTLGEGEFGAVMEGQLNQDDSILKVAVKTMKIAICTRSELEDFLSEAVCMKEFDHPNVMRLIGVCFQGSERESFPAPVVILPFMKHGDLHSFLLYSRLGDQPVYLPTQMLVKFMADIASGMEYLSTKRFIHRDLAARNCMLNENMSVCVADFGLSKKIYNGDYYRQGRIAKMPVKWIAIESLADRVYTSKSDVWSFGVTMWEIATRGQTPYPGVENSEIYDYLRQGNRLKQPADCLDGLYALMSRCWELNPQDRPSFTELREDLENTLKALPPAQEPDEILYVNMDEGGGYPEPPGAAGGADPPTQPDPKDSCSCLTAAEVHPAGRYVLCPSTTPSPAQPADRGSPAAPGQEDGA

Row | SMILES | IC50 [1] [nM] | IC50 [2] [nM] | IC50 [3] [nM]
1 | CCNc1cc2c(cn1)c(C1CCN(C)CC1)nn2[C@H]1CC[C@@H](Oc2nccc(C(F)(F)F)c2F)CC1 [Example 316, N-ethyl-1-((1s,4s)-4-((3-fluoro-4-(trifluoromethyl)pyridin-2-yl)oxy)cyclohexyl)-3-(1-methylpiperidin-4-yl)-1H-pyrazolo[4,3-c]pyridin-6-amine] | < 10 | 10 to 100 | < 10
2 | CCNc1cc2c(cn1)c(C1CCNCC1)nn2[C@H]1CC[C@@H](Oc2nccc(C(F)(F)F)c2F)CC1 [Example 319, N-ethyl-1-((1s,4s)-4-((3-fluoro-4-(trifluoromethyl)pyridin-2-yl)oxy)cyclohexyl)-3-(piperidin-4-yl)-1H-pyrazolo[4,3-c]pyridin-6-amine] | < 10 | < 10 | < 10
3 | CCNc1cc2c(cn1)c(C1CCNC1)nn2[C@H]1CC[C@@H](Oc2nccc(C(F)(F)F)c2F)CC1 (stereo partly drawn) [Example 320, N-ethyl-1-((1s,4s)-4-((3-fluoro-4-(trifluoromethyl)pyridin-2-yl)oxy)cyclohexyl)-3-(pyrrolidin-3-yl)-1H-pyrazolo[4,3-c]pyridin-6-amine] | < 10 | 10 to 100 | < 10
4 | CCNc1cc2c(cn1)c(C1CCCN(C)C1)nn2[C@H]1CC[C@@H](Oc2nccc(C(F)(F)F)c2F)CC1 (stereo partly drawn) [Example 324, N-ethyl-1-((1s,4s)-4-((3-fluoro-4-(trifluoromethyl)pyridin-2-yl)oxy)cyclohexyl)-3-(1-methylpiperidin-3-yl)-1H-pyrazolo[4,3-c]pyridin-6-amine] | < 10 | 10 to 100 | < 10
5 | CCNc1cc2c(cn1)c(C1CCN(C)C1)nn2[C@H]1CC[C@@H](Oc2nccc(C(F)(F)F)c2F)CC1 (stereo partly drawn) [Example 325, N-ethyl-1-((1s,4s)-4-((3-fluoro-4-(trifluoromethyl)pyridin-2-yl)oxy)cyclohexyl)-3-(1-methylpyrrolidin-3-yl)-1H-pyrazolo[4,3-c]pyridin-6-amine] | < 10 | 10 to 100 | < 10
6 | CCNc1cc2c(cn1)c(C1CCN(C(C)C)CC1)nn2[C@H]1CC[C@@H](Oc2nccc(C(F)(F)F)c2F)CC1 [Example 326, N-ethyl-1-((1s,4s)-4-((3-fluoro-4-(trifluoromethyl)pyridin-2-yl)oxy)cyclohexyl)-3-(1-isopropylpiperidin-4-yl)-1H-pyrazolo[4,3-c]pyridin-6-amine] | < 10 | 10 to 100 | < 10
7 | CCNc1cc2c(cn1)c(C1CCN(CCOC)CC1)nn2[C@H]1CC[C@@H](Oc2nccc(C(F)(F)F)c2F)CC1 [Example 327, N-ethyl-1-((1s,4s)-4-((3-fluoro-4-(trifluoromethyl)pyridin-2-yl)oxy)cyclohexyl)-3-(1-(2-methoxyethyl)piperidin-4-yl)-1H-pyrazolo[4,3-c]pyridin-6-amine] | < 10 | 10 to 100 | < 10
8 | CCNc1cc2c(cn1)c(C1CCN(C3CCN(C)CC3)CC1)nn2[C@H]1CC[C@@H](Oc2nccc(C(F)(F)F)c2F)CC1 [Example 328, N-ethyl-1-((1s,4s)-4-((3-fluoro-4-(trifluoromethyl)pyridin-2-yl)oxy)cyclohexyl)-3-(1′-methyl-[1,4′-bipiperidin]-4-yl)-1H-pyrazolo[4,3-c]pyridin-6-amine] | < 10 | < 10 | < 10
9 | CCNc1cc2c(cn1)c(C1CCN(C(=O)C(C)C)CC1)nn2[C@H]1CC[C@@H](Oc2nccc(C(F)(F)F)c2F)CC1 [Example 329, 1-(4-(6-(ethylamino)-1-((1s,4s)-4-((3-fluoro-4-(trifluoromethyl)pyridin-2-yl)oxy)cyclohexyl)-1H-pyrazolo[4,3-c]pyridin-3-yl)piperidin-1-yl)-2-methylpropan-1-one] | < 10 | 10 to 100 | < 10
10 | CCNc1cc2c(cn1)c(N1CCOCC1)nn2[C@H]1CC[C@@H](Oc2nccc(C(F)(F)F)c2F)CC1 [Example 330, N-ethyl-1-((1s,4s)-4-((3-fluoro-4-(trifluoromethyl)pyridin-2-yl)oxy)cyclohexyl)-3-morpholino-1H-pyrazolo[4,3-c]pyridin-6-amine] | < 10 | 10 to 100 | < 10
11 | CCNc1cc2c(cn1)c(N1CCN(C)CC1)nn2[C@H]1CC[C@@H](Oc2nccc(C(F)(F)F)c2F)CC1 [Example 331, N-ethyl-1-((1s,4s)-4((3-fluoro-4-(trifluoromethyl)pyridin-2-yl)oxy)cyclohexyl)-3-(4-methylpiperazin-1-yl)-1H-pyrazolo[4,3-c]pyridin-6-amine] | < 10 | < 10 | < 10
12 | CCNc1cc2c(cn1)c(N1CCC(OC)CC1)nn2[C@H]1CC[C@@H](Oc2nccc(C(F)(F)F)c2F)CC1 [Example 333, N-ethyl-1-((1s,4s)-4((3-fluoro-4-(trifluoromethyl)pyridin-2-yl)oxy)cyclohexyl)-3-(4-methoxypiperidin-1-yl)-1H-pyrazolo[4,3-c]pyridin-6-amine] | < 10 | < 10 | < 10
13 | CCNc1cc2c(cn1)c(N1CC[C@H](N(C)C)C1)nn2[C@H]1CC[C@@H](Oc2nccc(C(F)(F)F)c2F)CC1 [Example 335, 3-((S)-3-(dimethylamino)pyrrolidin-1-yl)-N-ethyl-1-((1s,4R)-4-((3-fluoro-4-(trifluoromethyl)pyridin-2-yl)oxy)cyclohexyl)-1H-pyrazolo[4,3-c]pyridin-6-amine] | < 10 | 10 to 100 | < 10
14 | CCNc1cc2c(cn1)c(N1CC[C@H](O)C1)nn2[C@H]1CC[C@@H](Oc2nccc(C(F)(F)F)c2F)CC1 [Example 336, (S)-1-(6-(ethylamino)-1-((1s,4R)-4-((3-fluoro-4-(trifluoromethyl)pyridin-2-yl)oxy)cyclohexyl)-1H-pyrazolo[4,3-c]pyridin-3-yl)pyrrolidin-3-ol] | < 10 | 10 to 100 | < 10
15 | CCNc1cc2c(cn1)c(N1CCC[C@H](NC)C1)nn2[C@H]1CC[C@@H](Oc2nccc(C(F)(F)F)c2F)CC1 [Example 338, N-ethyl-1-((1s,4R)-4-((3-fluoro-4-(trifluoromethyl)pyridin-2-yl)oxy)cyclohexyl)-3-((S)-3-(methylamino)piperidin-1-yl)-1H-pyrazolo[4,3-c]pyridin-6-amine] | < 10 | 10 to 100 | < 10
16 | CCNc1cc2c(cn1)c(N1CC[C@@H](NC)C1)nn2[C@H]1CC[C@@H](Oc2nccc(C(F)(F)F)c2F)CC1 [Example 339, N-ethyl-1-((1s,4S)-4-((3-fluoro-4-(trifluoromethyl)pyridin-2-yl)oxy)cyclohexyl)-3-((R)-3-(methylamino)pyrrolidin-1-yl)-1H-pyrazolo[4,3-c]pyridin-6-amine] | < 10 | < 10 | < 10
17 | CCNc1cc2c(cn1)c(N1CC3COCC3C1)nn2[C@H]1CC[C@@H](Oc2nccc(C(F)(F)F)c2F)CC1 (stereo partly drawn) [Example 342, N-ethyl-1-((1s,4s)-4((3-fluoro-4-(trifluoromethyl)pyridin-2-yl)oxy)cyclohexyl)-3-(tetrahydro-1H-furo[3,4-c]pyrrol-5(3H)-yl)-1H-pyrazolo[4,3-c]pyridin-6-amine] | < 10 | 10 to 100 | < 10
